Reference: patent publication US20210122739A1, “NOVEL SULFONAMIDE CARBOXAMIDE COMPOUNDS” (Inflazome Limited, priority 2017, published 2021)

What was measured:
NLRP3 [1] = molecular target: T1, NLRP3 (Homo sapiens, UniProt Q96P20); test: Human whole blood IL1β release assay; assay type: cell-based; parameters: Plate out 80 μl of whole blood containing 1 μg/ml of LPS; from tissue; host or cells: human whole blood from healthy donors, LPS-primed, nigericin-stimulated; conditions: 1 μg/ml LPS, nigericin 10 μM, IL-1β by AlphaLisa, read-out: HWB IC50
Protocol: For systemic delivery, the ability to inhibit NLRP3 when the compounds are present within the bloodstream is of great importance. For this reason, the NLRP3 inhibitory activity of a number of compounds in human whole blood was investigated in accordance with the following protocol.
Human whole blood in Li-heparin tubes was obtained from healthy donors from a volunteer donor panel. • 1. Plate out 80 μl of whole blood containing 1 μg/ml of LPS in 96-well, clear bottom cell culture plate (Corning #3585) • 2. Add 10 μl compound (8 points half-log dilution with 10 μM top dose) or vehicle (DMSO 0.1% FAC) to the appropriate wells • 3. Incubate for 3 hrs at 37° C., 5% CO2 • 4. Add 10 μl Nigericin (Sigma #N7143) (10 μM FAC) to all wells • 5. Incubate for 1 hr at 37° C., 5% CO2 • 6. At the end of the incubation period, spin plates at 300×g for 5 mins to pellet cells and remove 20 μl of supernatant and add to 96-well v-bottom plates for IL-1β analysis (note: these plates containing the supernatants can be stored at −80° C. to be analysed at a later date) • 7. IL-1β was measured according to the manufacturer protocol (Perkin Elmer-AlphaLisa IL-1 Kit AL220F-5000) • 8. IC50 data is fitted to anon-linear regression equation (log inhibitor vs response-variable slope 4-parameters)

NLRP3 [2] = molecular target: T1, NLRP3; test: THP-1 cells pyroptosis assay; assay type: cell-based; parameters: Seed THP-1 cells (25,000 cells/well) containing 1.0 μg/ml LPS; host or cells: THP-1 cells, LPS-primed, nigericin-stimulated; conditions: 1.0 μg/ml LPS, nigericin 5 μM, resazurin readout
Method in brief: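 THP-1 cells (25,000/well, serum-free RPMI) primed with 1 μg/ml LPS were given compound (8-point half-log series, top 10 μM; 0.1% DMSO) for 3 h at 37 °C, then 5 μM nigericin for 1 h. Viability read by 100 μM resazurin fluorescence (Ex 560/Em 590) after 1–2 h; IC50 from four-parameter nonlinear regression.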

[3] = PK protocol: pharmacokinetic parameters in male Sprague Dawley rats; assay type: in vivo; conditions: plasma, rat; for Vd: read-out: Vdss
Protocol: Pharmacokinetic parameters were determined in male Sprague Dawley rats (Charles River, UK, 250-350 g; or Vital River Laboratory Animal Technology Co Ltd, Beijing, China, 7-9 weeks old). Animals were individually housed during the study and maintained under a 12 h light/dark cycle. Animals had free access to food and water except that some orally dosed animals were food deprived overnight prior to the study.
For intravenous administration, compounds were formulated as a solution in water or DMSO:PBS [10:90] in 2 mL/kg dosing volume and administered via tail vein. For oral administration, compounds were formulated as a solution in water or DMSO:water [10:90] in 5 mL/kg dosing volume and administered orally.
Serial blood samples (about 120-300 μL) were taken from each animal at each of 8 time-points post dose (0.083, 0.25, 0.5, 1, 2, 4, 8 and 24 h) or at each of 12 time-points post dose (0.03, 0.1, 0.17, 0.25, 0.5, 1, 2, 4, 6, 8, 12 and 24 h) or pre-dose and at each of 9 time-points post dose (0.25, 0.5, 1, 2, 4, 6, 8, 12 and 24 h). Samples were held on ice for no longer than 30 minutes before centrifugation (10,000 rpm (8,385 g) for 3 minutes; or 5,696 rpm (3,000 g) for 15 minutes) for plasma generation. Plasma was frozen on dry ice prior to bioanalysis. PK parameters were generated from LC-MS/MS data using Dotmatics or Phoenix WinNonlin 6.3 software.

[4] = intravenous administration, dose per compound in Dose column (0.83-5.05 mg/kg)
[5] = oral administration, dose per compound in Dose column (3 or 5 mg/kg)

T1 sequence (Q96P20 whole entry): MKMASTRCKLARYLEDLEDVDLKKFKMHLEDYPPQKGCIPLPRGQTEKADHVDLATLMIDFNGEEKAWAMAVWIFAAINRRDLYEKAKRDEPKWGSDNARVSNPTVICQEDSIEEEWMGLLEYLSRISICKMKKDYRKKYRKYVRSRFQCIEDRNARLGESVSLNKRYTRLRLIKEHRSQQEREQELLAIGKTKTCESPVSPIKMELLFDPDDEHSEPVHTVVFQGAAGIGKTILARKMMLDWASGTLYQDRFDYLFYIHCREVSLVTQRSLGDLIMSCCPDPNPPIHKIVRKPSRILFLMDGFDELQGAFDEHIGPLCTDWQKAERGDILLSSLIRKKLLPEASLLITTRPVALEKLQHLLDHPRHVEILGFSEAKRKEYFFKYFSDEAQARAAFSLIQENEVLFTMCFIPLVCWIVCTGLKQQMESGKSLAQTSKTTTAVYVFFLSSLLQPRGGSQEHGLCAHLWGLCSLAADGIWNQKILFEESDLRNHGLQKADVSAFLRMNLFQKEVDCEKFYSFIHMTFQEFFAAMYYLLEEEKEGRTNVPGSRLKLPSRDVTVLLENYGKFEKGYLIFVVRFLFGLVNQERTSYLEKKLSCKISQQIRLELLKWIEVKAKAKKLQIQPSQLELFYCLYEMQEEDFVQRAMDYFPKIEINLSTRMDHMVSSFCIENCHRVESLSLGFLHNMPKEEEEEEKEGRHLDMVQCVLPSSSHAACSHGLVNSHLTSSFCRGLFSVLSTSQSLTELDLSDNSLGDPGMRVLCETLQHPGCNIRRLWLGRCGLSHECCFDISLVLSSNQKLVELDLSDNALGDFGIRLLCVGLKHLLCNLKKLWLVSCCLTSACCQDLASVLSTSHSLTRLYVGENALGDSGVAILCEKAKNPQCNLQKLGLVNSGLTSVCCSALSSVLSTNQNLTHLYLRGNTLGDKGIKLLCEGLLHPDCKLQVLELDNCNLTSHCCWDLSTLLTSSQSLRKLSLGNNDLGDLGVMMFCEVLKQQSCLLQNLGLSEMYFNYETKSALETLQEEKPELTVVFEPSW

Compound | IC50 (NLRP3 [1]) | IC50 (NLRP3 [2]) | AUC [3, 4] | clearance [3, 4] | half-life [3, 4] | Vd [3, 4] | AUC [3, 5] | CL/F [3, 5] | Cmax [3, 5] | Tmax [3, 5] | bioavailability [3, 5] | half-life [3, 5]
CC(C)n1nc(S(=O)(=O)NC(=O)Nc2c3c(cc4c2CCC4)CCC3)cc1C(=O)N1CCC1 [Example 31, 5-(Azetidine-1-carbonyl)-N-((1,2,3,5,6,7-hexahydro-s-indacen-4-yl)carbamoyl)-1-isopropyl-1H-pyrazole-3-sulfonamide] | 800 to 1600 nM | 40 to 160 nM | 303 ng·h/mL | 55.3 mL/min/kg | 1.6 h | 1.66 L/kg | – | – | – | – | – | –
CC(C)c1cccc(C(C)C)c1NC(=O)NS(=O)(=O)c1cc(C(=O)N(C)C)n(C)n1 [Example 67, 3-(N-((2,6-Diisopropylphenyl)carbamoyl)sulfamoyl)-N,N,1-trimethyl-1H-pyrazole-5-carboxamide] | < 400 nM | 160 to 640 nM | 334 ng·h/mL | 48.7 mL/min/kg | 0.5 h | 0.99 L/kg | – | – | – | – | – | –
CC(C)c1cc(F)cc(C(C)C)c1NC(=O)NS(=O)(=O)c1cc(C(=O)N(C)C)n(C)n1 [Example 60, 3-(N-((4-Fluoro-2,6-diisopropylphenyl)carbamoyl)sulfamoyl)-N,N,1-trimethyl-1H-pyrazole-5-carboxamide] | < 400 nM | 160 to 640 nM | 283 ng·h/mL | 59.2 mL/min/kg | 3.3 h | 4.08 L/kg | 770 ng·h/mL | 110 mL/min/kg | 495 ng/mL | 0.17 h | 54.3% | 9.7 h
CC(C)c1cc(F)cc(C(C)C)c1NC(=O)NS(=O)(=O)c1cc(C(=O)N2CCC2)n(C)n1 [Example 45, 5-(Azetidine-1-carbonyl)-N-((4-fluoro-2,6-diisopropylphenyl)carbamoyl)-1-methyl-1H-pyrazole-3-sulfonamide] | < 400 nM | 40 to 160 nM | 415 ng·h/mL | 40.3 mL/min/kg | 6.4 h | 7.96 L/kg | – | – | – | – | – | –
CN(C)C(=O)c1cc(S(=O)(=O)NC(=O)Nc2c3c(cc4c2CCC4)CCC3)nn1C [Example 69, 3-(N-((1,2,3,5,6,7-Hexahydro-s-indacen-4-yl)carbamoyl)sulfamoyl)-N,N,1-trimethyl-1H-pyrazole-5-carboxamide] | < 400 nM | 40 to 160 nM | 3390 ng·h/mL | 24.8 mL/min/kg | 25.3 h | 17.8 L/kg | 1050 ng·h/mL | 49.5 mL/min/kg | 600 ng/mL | 0.25 h | 62% | 3.4 h
COCCN(C)C(=O)c1cc(S(=O)(=O)NC(=O)Nc2c3c(cc4c2CCC4)CCC3)nn1C [Example 27, 3-(N-((1,2,3,5,6,7-Hexahydro-s-indacen-4-yl)carbamoyl)sulfamoyl)-N-(2-methoxyethyl)-N,1-dimethyl-1H-pyrazole-5-carboxamide] | 400 to 800 nM | 40 to 160 nM | – | – | – | – | – | 21.5 mL/min/kg | – | 0.08 h | 67% | 4.9 h
CCN(C)C(=O)c1cc(S(=O)(=O)NC(=O)Nc2c3c(cc4c2CCC4)CCC3)nn1C [Example 62, N-Ethyl-3-(N-((1,2,3,5,6,7-hexahydro-s-indacen-4-yl)carbamoyl)sulfamoyl)-N,1-dimethyl-1H-pyrazole-5-carboxamide] | 400 to 800 nM | 40 to 160 nM | 1720 ng·h/mL | 25 mL/min/kg | 0.1 h | 0.24 L/kg | – | – | – | – | – | –
CC(C)c1cc(F)cc(-c2cnn(C)c2)c1NC(=O)NS(=O)(=O)c1cc(C(=O)N(C)C)n(C)n1 [Example 35, 3-(N-((4-Fluoro-2-isopropyl-6-(1-methyl-H-pyrazol-4-yl)phenyl)carbamoyl)sulfamoyl)-N,N,1-trimethyl-1H-pyrazole-5-carboxamide] | < 400 nM | 640 to 2560 nM | – | – | – | – | – | – | – | – | – | –
CN(CCO)C(=O)c1cc(S(=O)(=O)NC(=O)Nc2c3c(cc4c2CCC4)CCC3)nn1C [Example 78, 3-(N-((1,2,3,5,6,7-Hexahydro-s-indacen-4-yl)carbamoyl)sulfamoyl)-N-(2-hydroxyethyl)-N,1-dimethyl-1H-pyrazole-5-carboxamide] | < 400 nM | 40 to 160 nM | – | – | – | – | – | – | – | – | – | –
CC(C)c1cccc(C(C)C)c1NC(=O)NS(=O)(=O)c1cc(C(=O)N2CCC2)n(C)n1 [Example 51, 5-(Azetidine-1-carbonyl)-N-((2,6-diisopropylphenyl)carbamoyl)-1-methyl-1H-pyrazole-3-sulfonamide] | < 400 nM | 160 to 640 nM | – | – | – | – | – | – | – | – | – | –
CC(=O)N(C)Cc1cc(S(=O)(=O)NC(=O)Nc2c3c(cc4c2CCC4)CCC3)nn1C(C)C [Example 29, N-((3-(N-((1,2,3,5,6,7-Hexahydro-s-indacen-4-yl)carbamoyl)sulfamoyl)-1-isopropyl-1H-pyrazol-5-yl)methyl)-N-methylacetamide] | 400 to 800 nM | 40 to 160 nM | – | – | – | – | – | – | – | – | – | –
CN(C)C(=O)C(C)(C)n1ccc(S(=O)(=O)NC(=O)Nc2c3c(cc4c2CCC4)CCC3)n1 [Example 83, 2-(3-(N-((1,2,3,5,6,7-Hexahydro-s-indacen-4-yl)carbamoyl)sulfamoyl)-1H-pyrazol-1-yl)-N,N,2-trimethylpropanamide] | 800 to 1600 nM | 40 to 160 nM | – | – | – | – | – | – | – | – | – | –
CC(C)c1cc(Cl)cc(C(C)C)c1NC(=O)NS(=O)(=O)c1cc(C(=O)N(C)C)n(C)n1 [Example 68, 3-(N-((4-Chloro-2,6-diisopropylphenyl)carbamoyl)sulfamoyl)-N,N,1-trimethyl-1H-pyrazole-5-carboxamide] | 1600 to 3200 nM | 40 to 160 nM | 353 ng·h/mL | 161 mL/min/kg | 1.3 h | 10.6 L/kg | – | – | – | – | – | –
CCN(CCO)C(=O)c1cc(S(=O)(=O)NC(=O)Nc2c3c(cc4c2CCC4)CCC3)nn1C [Example 20, N-Ethyl-3-(N-((1,2,3,5,6,7-hexahydro-s-indacen-4-yl)carbamoyl)sulfamoyl)-N-(2-hydroxyethyl)-1-methyl-1H-pyrazole-5-carboxamide] | 800 to 1600 nM | 160 to 640 nM | – | – | – | – | – | – | – | – | – | –
